We go through two molecules from ChEMBL document CHEMBL4387741, “Optimization of novel reversible Bruton's tyrosine kinase inhibitors identified using Tethering-fragment-based screens” (Bioorg Med Chem, 2019).

For assay [1], the target named is Dual specificity protein kinase CLK4 (Homo sapiens) (UniProt Q9HAZ1). Put plainly: Inhibition of wild-type human partial length CLK4 (R135 to K481 residues) expressed in bacterial expression system at 10 uM by Kinomescan method relative to control.
Assay [2] has as its target Ephrin type-B receptor 2 (Homo sapiens) (UniProt P29323). Put plainly: Inhibition of wild-type human partial length EPHB2 (I597 to L902 residues) expressed in bacterial expression system at 10 uM by Kinomescan method relative to control.
In assay [3] the target is Myosin-IIIa (Homo sapiens) (UniProt Q8NEV4). Put plainly: Inhibition of wild-type human partial length MYO3A (M1 to K338 residues) expressed in bacterial expression system at 10 uM by Kinomescan method relative to control.
The target in assay [4] is Mitotic checkpoint serine/threonine-protein kinase BUB1 (Homo sapiens) (UniProt O43683). Description: Inhibition of wild-type human partial length BUB1 (Q724 to K1085 residues) expressed in mammalian expression system at 10 uM by Kinomescan method relative to control.
In assay [5] the target is Serine/threonine-protein kinase Nek9 (Homo sapiens) (UniProt Q8TD19). Put plainly: Inhibition of wild-type human partial length NEK9 (P32 to R328 residues) expressed in bacterial expression system at 10 uM by Kinomescan method relative to control.
For assay [6], the target named is Platelet-derived growth factor receptor beta (Homo sapiens) (UniProt P09619). Description: Inhibition of wild-type human partial length PDGFRB (V582 to Y1009 residues) expressed in bacterial expression system at 10 uM by Kinomescan method relative to control.
Chain of Platelet-derived growth factor receptor beta (Homo sapiens) (P09619 whole entry, the tested form may be a part): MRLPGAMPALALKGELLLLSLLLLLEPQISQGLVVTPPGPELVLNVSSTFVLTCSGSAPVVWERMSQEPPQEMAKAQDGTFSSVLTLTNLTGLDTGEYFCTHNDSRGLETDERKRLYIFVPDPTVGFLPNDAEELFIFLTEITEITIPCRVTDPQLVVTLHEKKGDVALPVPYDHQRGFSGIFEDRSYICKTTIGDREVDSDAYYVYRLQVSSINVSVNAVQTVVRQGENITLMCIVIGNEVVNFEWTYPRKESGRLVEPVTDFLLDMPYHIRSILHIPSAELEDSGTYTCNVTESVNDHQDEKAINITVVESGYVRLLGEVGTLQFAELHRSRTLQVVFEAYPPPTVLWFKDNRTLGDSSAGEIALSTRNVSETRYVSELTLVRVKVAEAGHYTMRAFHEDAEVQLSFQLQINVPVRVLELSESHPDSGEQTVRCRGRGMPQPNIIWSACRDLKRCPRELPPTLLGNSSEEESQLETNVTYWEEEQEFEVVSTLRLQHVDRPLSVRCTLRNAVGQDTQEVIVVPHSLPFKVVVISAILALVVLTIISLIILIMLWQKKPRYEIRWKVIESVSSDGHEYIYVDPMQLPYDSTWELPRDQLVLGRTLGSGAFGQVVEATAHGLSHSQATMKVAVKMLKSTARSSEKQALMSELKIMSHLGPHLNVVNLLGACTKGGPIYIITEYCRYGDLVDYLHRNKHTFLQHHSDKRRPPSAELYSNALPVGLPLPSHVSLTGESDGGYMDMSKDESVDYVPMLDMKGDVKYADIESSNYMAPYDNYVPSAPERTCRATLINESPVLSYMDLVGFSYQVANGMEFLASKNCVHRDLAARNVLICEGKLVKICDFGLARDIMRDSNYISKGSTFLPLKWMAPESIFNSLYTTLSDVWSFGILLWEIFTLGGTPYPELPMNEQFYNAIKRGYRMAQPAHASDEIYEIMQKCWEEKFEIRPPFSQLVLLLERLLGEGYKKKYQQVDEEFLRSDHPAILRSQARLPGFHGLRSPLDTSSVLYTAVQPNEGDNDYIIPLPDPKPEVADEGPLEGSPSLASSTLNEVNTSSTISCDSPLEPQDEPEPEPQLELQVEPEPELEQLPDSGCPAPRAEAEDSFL
Assay [7] concerns the target Tyrosine-protein kinase Mer (Homo sapiens) (UniProt Q12866). Description: Inhibition of wild-type human partial length MERTK (R557 to L884 residues) expressed in bacterial expression system at 10 uM by Kinomescan method relative to control.
The target in assay [8] is Receptor-type tyrosine-protein kinase FLT3 (Homo sapiens) (UniProt P36888). Description: Inhibition of wild-type human partial length FLT3 (V592 to Y969 residues) expressed in bacterial expression system at 10 uM by Kinomescan method relative to control.
Chain of Receptor-type tyrosine-protein kinase FLT3 (Homo sapiens) (P36888 whole entry, the tested form may be a part): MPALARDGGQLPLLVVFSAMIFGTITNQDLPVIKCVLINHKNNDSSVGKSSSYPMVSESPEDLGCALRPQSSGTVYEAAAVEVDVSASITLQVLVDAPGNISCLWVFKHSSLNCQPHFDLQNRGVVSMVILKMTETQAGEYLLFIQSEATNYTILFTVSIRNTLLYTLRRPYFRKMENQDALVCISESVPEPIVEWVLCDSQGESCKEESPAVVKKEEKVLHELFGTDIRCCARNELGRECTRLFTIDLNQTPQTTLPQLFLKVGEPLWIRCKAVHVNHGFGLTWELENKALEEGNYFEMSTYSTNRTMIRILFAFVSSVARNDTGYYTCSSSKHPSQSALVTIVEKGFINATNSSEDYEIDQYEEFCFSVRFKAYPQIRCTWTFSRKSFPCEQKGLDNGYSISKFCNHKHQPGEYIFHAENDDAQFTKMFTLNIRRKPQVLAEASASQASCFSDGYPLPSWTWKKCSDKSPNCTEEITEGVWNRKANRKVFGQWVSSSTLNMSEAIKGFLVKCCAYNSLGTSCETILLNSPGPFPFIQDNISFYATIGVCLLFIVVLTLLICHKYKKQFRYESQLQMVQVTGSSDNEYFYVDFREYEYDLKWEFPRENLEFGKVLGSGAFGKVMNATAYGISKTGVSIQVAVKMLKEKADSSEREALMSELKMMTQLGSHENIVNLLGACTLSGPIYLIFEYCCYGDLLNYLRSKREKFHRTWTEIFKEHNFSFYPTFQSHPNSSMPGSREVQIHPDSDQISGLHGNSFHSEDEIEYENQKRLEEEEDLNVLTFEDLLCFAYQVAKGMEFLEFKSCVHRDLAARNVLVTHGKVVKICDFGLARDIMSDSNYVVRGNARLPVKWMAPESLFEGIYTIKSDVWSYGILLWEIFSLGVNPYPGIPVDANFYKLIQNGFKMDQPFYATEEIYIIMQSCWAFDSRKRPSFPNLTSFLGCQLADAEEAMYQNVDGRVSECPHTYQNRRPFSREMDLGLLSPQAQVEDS
Assay [9] deals with Dual specificity protein kinase CLK2 (Homo sapiens) (UniProt P49760). Put plainly: Inhibition of wild-type human partial length CLK2 (D144 to R498 residues) expressed in bacterial expression system at 10 uM by Kinomescan method relative to control.
Chain of Dual specificity protein kinase CLK2 (Homo sapiens) (P49760 whole entry, looked up, the tested form may be a part): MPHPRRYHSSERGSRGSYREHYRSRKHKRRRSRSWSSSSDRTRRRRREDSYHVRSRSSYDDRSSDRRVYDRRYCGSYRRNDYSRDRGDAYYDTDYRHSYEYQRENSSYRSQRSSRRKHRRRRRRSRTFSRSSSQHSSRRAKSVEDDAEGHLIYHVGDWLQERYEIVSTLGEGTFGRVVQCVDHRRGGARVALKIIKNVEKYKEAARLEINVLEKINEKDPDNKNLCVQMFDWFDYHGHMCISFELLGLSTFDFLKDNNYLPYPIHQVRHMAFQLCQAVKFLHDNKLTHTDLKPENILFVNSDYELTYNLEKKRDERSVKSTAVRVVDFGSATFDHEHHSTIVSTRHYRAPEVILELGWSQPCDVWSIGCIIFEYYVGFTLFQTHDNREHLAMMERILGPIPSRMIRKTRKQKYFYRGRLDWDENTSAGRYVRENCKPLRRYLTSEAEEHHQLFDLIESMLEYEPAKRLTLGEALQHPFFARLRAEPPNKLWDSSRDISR
Assay [10] addresses Tyrosine-protein kinase JAK3 (Homo sapiens) (UniProt P52333). Put plainly: Inhibition of wild-type human partial length JAK3 JH1 catalytic domain (I781 to S1124 residues) expressed in mammalian expression system at 10 uM by Kinomescan method relative to control.
Assay [11] deals with Mitogen-activated protein kinase 6 (Homo sapiens) (UniProt Q16659). Description: Inhibition of wild-type human partial length ERK3 (M1 to P413 residues) expressed in bacterial expression system at 10 uM by Kinomescan method relative to control.
Chain of Mitogen-activated protein kinase 6 (Homo sapiens) (Q16659 whole entry, the tested form may be a part): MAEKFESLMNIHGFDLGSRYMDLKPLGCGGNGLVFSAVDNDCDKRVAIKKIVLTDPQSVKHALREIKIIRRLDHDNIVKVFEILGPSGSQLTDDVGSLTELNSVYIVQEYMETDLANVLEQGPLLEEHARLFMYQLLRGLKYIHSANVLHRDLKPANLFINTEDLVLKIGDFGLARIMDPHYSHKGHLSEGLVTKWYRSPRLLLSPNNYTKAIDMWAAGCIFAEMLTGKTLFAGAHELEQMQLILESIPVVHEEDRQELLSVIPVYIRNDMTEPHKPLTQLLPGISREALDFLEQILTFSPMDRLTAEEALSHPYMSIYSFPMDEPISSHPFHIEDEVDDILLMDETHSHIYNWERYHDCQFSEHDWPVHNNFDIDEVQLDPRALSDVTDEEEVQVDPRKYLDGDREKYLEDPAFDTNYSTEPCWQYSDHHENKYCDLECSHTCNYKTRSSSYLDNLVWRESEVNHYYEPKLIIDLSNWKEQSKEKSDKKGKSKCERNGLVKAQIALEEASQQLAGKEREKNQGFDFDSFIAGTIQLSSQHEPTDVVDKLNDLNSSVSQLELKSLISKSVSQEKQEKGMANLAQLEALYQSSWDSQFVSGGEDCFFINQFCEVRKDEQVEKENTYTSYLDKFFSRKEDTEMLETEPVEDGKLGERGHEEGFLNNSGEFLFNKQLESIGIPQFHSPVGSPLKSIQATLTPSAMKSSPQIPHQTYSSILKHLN
Assay [12] concerns the target Hepatocyte growth factor receptor (Homo sapiens) (UniProt P08581). Put plainly: Inhibition of wild-type human partial length MET (D1010 to S1367 residues) expressed in bacterial expression system at 10 uM by Kinomescan method relative to control.
Assay [13] deals with Serine/threonine-protein kinase SBK1 (Homo sapiens) (UniProt Q52WX2). Description: Inhibition of wild-type human partial length SBK1 (P23 to P348 residues) expressed in mammalian expression system at 10 uM by Kinomescan method relative to control.
Chain of Serine/threonine-protein kinase SBK1 (Homo sapiens) (Q52WX2 whole entry, the tested form may be a part): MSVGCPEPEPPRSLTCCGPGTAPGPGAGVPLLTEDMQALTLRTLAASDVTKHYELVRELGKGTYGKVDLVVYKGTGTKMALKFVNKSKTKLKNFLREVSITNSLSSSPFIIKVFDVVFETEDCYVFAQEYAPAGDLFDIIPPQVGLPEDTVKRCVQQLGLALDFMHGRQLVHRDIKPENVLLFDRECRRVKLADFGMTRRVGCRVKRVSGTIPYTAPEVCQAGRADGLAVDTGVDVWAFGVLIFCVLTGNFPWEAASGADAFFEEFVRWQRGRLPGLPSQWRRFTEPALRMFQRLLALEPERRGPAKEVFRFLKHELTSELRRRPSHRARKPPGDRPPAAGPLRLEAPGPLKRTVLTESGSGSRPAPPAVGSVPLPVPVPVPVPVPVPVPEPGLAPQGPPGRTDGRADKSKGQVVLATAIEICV
Assay [14] has as its system Tyrosine-protein kinase ABL1 (Homo sapiens), P00519 [H396P]. Put plainly: Inhibition of human non-phosphorylated ABL1 H396P mutant (S229 to K512 residues) expressed in mammalian expression system at 10 uM by Kinomescan method relative to control.
Assay [15] concerns the target Epidermal growth factor receptor (Homo sapiens) (UniProt P00533). Description: Inhibition of wild-type human partial length EGFR (R669 to V1011 residues) expressed in bacterial expression system at 10 uM by Kinomescan method relative to control.
Assay [16] has as its target Receptor-interacting serine/threonine-protein kinase 1 (Homo sapiens) (UniProt Q13546). Description: Inhibition of wild-type human partial length RIPK1 (M1 to K305 residues) expressed in bacterial expression system at 1 uM by Kinomescan method relative to control.
Assay [17] addresses Tyrosine-protein kinase Fyn (Homo sapiens) (UniProt P06241). Put plainly: Inhibition of wild-type human partial length FYN (T243 to L534 residues) expressed in bacterial expression system at 1 uM by Kinomescan method relative to control.
Assay [18] addresses Serine/threonine-protein kinase D3 (Homo sapiens) (UniProt O94806). Description: Inhibition of wild-type human partial length PRKD3 (S543 to E863 residues) expressed in bacterial expression system at 1 uM by Kinomescan method relative to control.
For assay [19], the target named is Mitogen-activated protein kinase kinase kinase kinase 3 (Homo sapiens) (UniProt Q8IVH8). Put plainly: Inhibition of wild-type human partial length MAP4K3 (M1 to D301 residues) expressed in bacterial expression system at 1 uM by Kinomescan method relative to control.
Chain of Mitogen-activated protein kinase kinase kinase kinase 3 (Homo sapiens) (Q8IVH8 whole entry, the tested form may be a part): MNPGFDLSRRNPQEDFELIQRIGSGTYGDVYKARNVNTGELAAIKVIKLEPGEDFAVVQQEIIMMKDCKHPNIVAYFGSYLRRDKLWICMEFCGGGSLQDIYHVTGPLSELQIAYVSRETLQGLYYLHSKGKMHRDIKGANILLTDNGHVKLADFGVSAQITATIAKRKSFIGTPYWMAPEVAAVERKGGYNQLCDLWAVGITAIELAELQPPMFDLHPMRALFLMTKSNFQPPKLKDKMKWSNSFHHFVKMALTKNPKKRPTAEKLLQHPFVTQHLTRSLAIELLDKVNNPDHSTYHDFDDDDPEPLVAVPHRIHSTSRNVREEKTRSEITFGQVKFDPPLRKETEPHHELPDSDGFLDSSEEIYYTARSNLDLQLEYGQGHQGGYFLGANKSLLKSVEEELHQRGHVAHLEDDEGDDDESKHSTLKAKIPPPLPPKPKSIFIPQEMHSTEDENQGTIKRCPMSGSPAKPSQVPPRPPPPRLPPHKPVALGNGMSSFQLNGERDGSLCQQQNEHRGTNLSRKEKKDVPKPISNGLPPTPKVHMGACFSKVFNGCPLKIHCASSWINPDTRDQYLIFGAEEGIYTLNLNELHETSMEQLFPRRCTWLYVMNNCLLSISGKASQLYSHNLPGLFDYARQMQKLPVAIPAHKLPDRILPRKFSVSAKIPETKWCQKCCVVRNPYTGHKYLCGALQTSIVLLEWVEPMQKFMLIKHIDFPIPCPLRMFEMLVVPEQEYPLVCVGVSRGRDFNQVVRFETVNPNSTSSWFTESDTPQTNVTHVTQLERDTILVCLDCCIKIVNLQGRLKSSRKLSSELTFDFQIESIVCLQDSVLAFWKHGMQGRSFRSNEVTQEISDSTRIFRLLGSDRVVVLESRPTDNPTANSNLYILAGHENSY
The target of assay [20] is Mitogen-activated protein kinase 8 (Homo sapiens) (UniProt P45983). Put plainly: Inhibition of wild-type human full length JNK1 (M1 to Q384 residues) expressed in mammalian expression system at 1 uM by Kinomescan method relative to control.
Chain of Mitogen-activated protein kinase 8 (Homo sapiens) (P45983 whole entry, the tested form may be a part): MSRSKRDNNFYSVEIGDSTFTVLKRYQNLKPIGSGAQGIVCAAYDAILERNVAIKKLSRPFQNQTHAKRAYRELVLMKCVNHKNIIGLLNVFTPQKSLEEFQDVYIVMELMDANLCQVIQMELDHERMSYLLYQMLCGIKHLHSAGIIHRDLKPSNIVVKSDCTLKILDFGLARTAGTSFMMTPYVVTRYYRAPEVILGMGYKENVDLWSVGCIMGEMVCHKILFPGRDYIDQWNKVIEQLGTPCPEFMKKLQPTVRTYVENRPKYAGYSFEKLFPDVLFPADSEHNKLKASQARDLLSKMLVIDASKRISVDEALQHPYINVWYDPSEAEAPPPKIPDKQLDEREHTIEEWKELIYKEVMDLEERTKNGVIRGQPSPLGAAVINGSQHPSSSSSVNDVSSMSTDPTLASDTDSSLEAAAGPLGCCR
Assay [21] concerns the target Mitogen-activated protein kinase kinase kinase kinase 1 (Homo sapiens) (UniProt Q92918). Put plainly: Inhibition of wild-type human full length HPK1 (M1 to R799 residues) expressed in bacterial expression system at 1 uM by Kinomescan method relative to control.
The target in assay [22] is Dual specificity protein kinase CLK2 (Homo sapiens) (UniProt P49760). Put plainly: Inhibition of wild-type human partial length CLK2 (D144 to R498 residues) expressed in bacterial expression system at 1 uM by Kinomescan method relative to control.
For assay [23], the system named is Epidermal growth factor receptor (Homo sapiens), P00533 [L861Q]. Put plainly: Inhibition of human partial length EGFR L861Q mutant (R669 to V1011 residues) expressed in bacterial expression system at 1 uM by Kinomescan method relative to control.
In assay [24] the target is Cyclin-dependent kinase 11A (Homo sapiens) (UniProt Q9UQ88). Put plainly: Inhibition of wild-type human partial length CDC2L2 (D391 to K730 residues) expressed in bacterial expression system at 1 uM by Kinomescan method relative to control.
In assay [25] the target is Serine/threonine-protein kinase WNK2 (Homo sapiens) (UniProt Q9Y3S1). Put plainly: Inhibition of wild-type human partial length WNK2 (V47 to D482 residues) expressed in mammalian expression system at 1 uM by Kinomescan method relative to control.
For assay [26], the target named is 5'-AMP-activated protein kinase catalytic subunit alpha-1 (Homo sapiens) (UniProt Q13131). Description: Inhibition of wild-type human partial length AMPK alpha1 (M1 to E306 residues) expressed in bacterial expression system at 1 uM by Kinomescan method relative to control.
The target in assay [27] is Membrane-associated tyrosine- and threonine-specific cdc2-inhibitory kinase (Homo sapiens) (UniProt Q99640). Description: Inhibition of wild-type human partial length PKMYT1 (A88 to G366 residues) expressed in bacterial expression system at 1 uM by Kinomescan method relative to control.

The term inhibition denotes the relative decrease from the control value, in per cent. A higher inhibition goes with strong suppression. Regarding `O=C(Nc1cccc([C@H]2CCCN(c3ncnc4[nH]ccc34)C2)c1)Nc1ccccc1N1CCCC1`, the inhibition in assay [1] is 96%; in [2], 69%; in assay [3] it was 52%; in [4], 55%; in assay [5], 95%; in assay [6] it was 0.1%. In addition, the inhibition in [7] turned out to be 31%; in assay [8], 7.2%; in [9], 53%; in [10], 0.35%; in assay [11], 100%; in [12], 86%. The inhibition was 42% in assay [13], 12% in assay [14] and 88% in assay [15].

Turning to `O=C(Nc1cccc([C@@H]2CN(c3ncnc4[nH]ccc34)CCN2CCO)c1)Nc1c(F)cccc1N1CCCC1`, the inhibition in assay [16] is 100%; in assay [17], 52%; in [18], 86%; in assay [19] it was 71%; in [20], 70%; in assay [21] it was 100%. Further, the inhibition stood at 86% in assay [22]; 81% in [23]; 96% in [24]; 99% in assay [25]; 61% in assay [26]; 84% in assay [27].
